Data: US5688807A, “Method for treating 5HT2B receptor related conditions” (Eli Lilly and Company, priority 1995, dated 1997)
Where a name gives a salt, the structure may show the parent alone. Read-outs that look alike come from different tables or passages of the source.

Experiments:
Human 5-HT2A = Human 5-HT2A (Homo sapiens, UniProt P28223); experiment: [125I]DOI radioligand binding, human 5-HT2A
rat 5-HT2B receptor = rat 5-HT2B receptor (Rattus norvegicus, UniProt P30994); experiment: biochemical; format: binding;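 further: displacement of [3H]5-HT from membranes of suspension cells carrying cloned rat 5-HT2B receptor, incubated 15 min at 37 °C or 2 h at 0 °C, filter-bound radioactivity counted by scintillation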
rat 5-HT2B receptor, sequence (P30994 whole entry): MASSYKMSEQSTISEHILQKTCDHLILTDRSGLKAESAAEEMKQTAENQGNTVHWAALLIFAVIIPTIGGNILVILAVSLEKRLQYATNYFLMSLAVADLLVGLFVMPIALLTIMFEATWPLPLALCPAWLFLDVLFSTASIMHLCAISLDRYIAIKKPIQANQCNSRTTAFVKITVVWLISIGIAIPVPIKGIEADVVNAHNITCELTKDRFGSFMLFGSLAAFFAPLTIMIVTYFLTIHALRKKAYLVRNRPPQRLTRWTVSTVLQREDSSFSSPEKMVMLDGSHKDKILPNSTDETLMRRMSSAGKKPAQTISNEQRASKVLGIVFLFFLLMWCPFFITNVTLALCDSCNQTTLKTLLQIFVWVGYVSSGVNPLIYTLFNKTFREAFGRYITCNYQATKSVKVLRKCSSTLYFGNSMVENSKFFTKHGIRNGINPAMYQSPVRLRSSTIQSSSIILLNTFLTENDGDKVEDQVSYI

Human 5-HT2B = target: T1, Human 5-HT2B (Homo sapiens, UniProt P41595); experiment: [3H]Serotonin radioligand binding, human 5-HT2B;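 further: competition of tritiated serotonin binding to cell membranes, bound radioactivity on filters counted by liquid scintillation, IC50 from logistic fits converted to Ki with the Cheng-Prusoff equation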
T1 construct: expressed in transfected cells
T1 sequence (P41595 whole entry): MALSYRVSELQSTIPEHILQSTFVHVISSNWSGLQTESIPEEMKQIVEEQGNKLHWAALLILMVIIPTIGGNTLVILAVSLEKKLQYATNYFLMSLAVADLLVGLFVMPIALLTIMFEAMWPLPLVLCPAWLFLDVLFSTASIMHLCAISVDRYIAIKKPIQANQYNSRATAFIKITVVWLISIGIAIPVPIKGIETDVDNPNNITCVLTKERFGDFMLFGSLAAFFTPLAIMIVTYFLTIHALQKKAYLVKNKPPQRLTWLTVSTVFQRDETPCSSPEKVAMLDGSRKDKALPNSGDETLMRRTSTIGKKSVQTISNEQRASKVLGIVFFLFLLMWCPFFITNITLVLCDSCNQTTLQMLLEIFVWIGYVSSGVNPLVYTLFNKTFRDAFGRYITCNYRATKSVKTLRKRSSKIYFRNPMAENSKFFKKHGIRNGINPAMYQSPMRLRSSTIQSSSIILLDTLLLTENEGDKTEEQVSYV

[1] = target: 5-HT2B receptor (rat stomach fundus) (Rattus norvegicus, UniProt P30994);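 further: isometric contraction of isolated male Wistar rat stomach fundus strips, serotonin concentration-response curves after antagonist incubation, KB from dose ratio of agonist potency versus control curve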
5-HT2B receptor (rat stomach fundus), sequence (P30994 whole entry): as the sequence (P30994 whole entry) above

[2] = [3H]Serotonin, 5-HT2B cells, AVG, read-out: Ki Human 5-HT2B
[3] = [3H]Serotonin, 5-HT2B cells, AVG, read-out: Ki Rat 5-HT2B
[4] = rat stomach fundus, vs serotonin, ± standard error, read-out: 5-HT2B (Fundus) -log KB (converted)

Human 5-HT2A, sequence (P28223 whole entry): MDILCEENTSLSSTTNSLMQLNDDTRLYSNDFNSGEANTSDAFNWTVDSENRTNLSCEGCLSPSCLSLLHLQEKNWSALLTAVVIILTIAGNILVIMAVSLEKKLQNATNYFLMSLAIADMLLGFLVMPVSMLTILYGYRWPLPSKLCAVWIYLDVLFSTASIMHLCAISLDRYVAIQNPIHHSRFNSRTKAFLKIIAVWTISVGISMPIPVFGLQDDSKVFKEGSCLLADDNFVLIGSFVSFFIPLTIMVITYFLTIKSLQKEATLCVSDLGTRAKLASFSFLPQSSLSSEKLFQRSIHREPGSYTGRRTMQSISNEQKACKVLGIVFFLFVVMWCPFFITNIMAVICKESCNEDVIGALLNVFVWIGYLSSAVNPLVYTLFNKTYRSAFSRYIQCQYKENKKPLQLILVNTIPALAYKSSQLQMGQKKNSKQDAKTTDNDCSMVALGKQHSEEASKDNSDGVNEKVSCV

SMILES | Ki (Human 5-HT2B; [2]) [nM] | Ki (Human 5-HT2A) [nM] | Kb [1, 4] [nM] | also measured
CC(C)n1cc2c3c(cccc31)C1CC(C(=O)NCCN3CCN(c4ccccc4)CC3)CN(C)C1C2 (centres unmarked) |  |  |  | Ki (Human 5-HT2A; Ki Human 5-HT2A, [125I]DOI, AVG): 32.7 nM; Ki (rat 5-HT2B receptor; Ki Rat 5-HT2B, [3H]Serotonin, 5-HT2B cells, AVG): 11.9 nM
CCCN(CCC)C1CCc2cccc(-c3ccno3)c2C1 (centres unmarked) | 509 |  |  | Ki (Human 5-HT2A; read-out: Ki Human 5-HT2A, [125I]DOI, AVG): 354 nM
CCCN(CCC)[C@@H]1CCc2cccc(-c3ccon3)c2C1 | 784 | 127 |  | 
CCCN(CCC)[C@H]1CCc2cccc(-c3ccon3)c2C1 | 257 | 5690 |  | 
CCCNC1CCc2cccc(-c3ccno3)c2C1 (centres unmarked) | 1020 | 6030 |  | 
CCCNC1CCc2cccc(C(C)=O)c2C1 (centres unmarked) | 1790 |  |  | 
CC(N)Cc1c[nH]c2ccc(O)cc12 (centres unmarked) |  |  |  | Ki (Human 5-HT2B): 11.9 nM
NCCc1c[nH]c2ccc(C(N)=O)cc12 | 128 | 120 |  | Ki (rat 5-HT2B receptor; [3]): 147 nM
c1ccc2c(N3CCNCC3)cccc2c1 |  |  |  | Ki (rat 5-HT2B receptor; [3]): 4.5 nM; Ki (Human 5-HT2B): 3.79 nM
Cc1ccc2[nH]c3c(c2c1)CCNC3C(C)c1cccc2ccccc12 (centres unmarked) | 1.29 | 5.62 |  | Ki (rat 5-HT2B receptor; [3]): 3.94 nM
Cc1ccc2[nH]c3c(c2c1)CCNC3Cc1ccc(N(C)C)c2ccccc12 (centres unmarked) | 1.64 | 0.83 |  | Ki (rat 5-HT2B receptor; [3]): 5.02 nM
Cc1ccc2[nH]c3c(c2c1)CCNC3Cc1cccc2ccccc12 (centres unmarked) | 0.74 | 4.63 |  | Ki (rat 5-HT2B receptor; [3]): 3.31 nM
COc1ccc(CC2NCCc3c2[nH]c2c(Cl)c(C)ccc32)cc1OC (centres unmarked) | 0.84 | 0.93 |  | Ki (rat 5-HT2B receptor; [3]): 3.19 nM
CCc1ccc2[nH]c3c(c2c1)CCNC3Cc1cccc2ccccc12 (centres unmarked) | 2.08 | 6.71 |  | 
COc1ccc(CC2NCCc3c2[nH]c2ccc(C)cc32)c(Br)c1OC (centres unmarked) |  | 12.2 |  | Ki (Human 5-HT2B): 0.37 nM
COc1ccc(CC2NCCc3c2[nH]c2ccc(C)cc32)cc1O (centres unmarked) | 1.47 | 54.9 |  | 
COc1ccc(C(C)C2NCCc3c2[nH]c2ccc(C(C)C)cc32)cc1OC (centres unmarked) | 3.46 | 201 |  | 
CN1CC(C(=O)NC2CCCC2O)CC2c3cccc4[nH]cc(c34)CC21 (centres unmarked) |  |  |  | Ki (Human 5-HT2B): 7.87 nM
CC(C)n1cc2c3c(cccc31)C1CC(C(=O)NC3CCCC3O)CN(C)C1C2 (centres unmarked) |  |  |  | Ki (Human 5-HT2A; [125I]DOI, AVG, read-out: Ki Human 5-HT2A): 21.9 nM; Ki (Human 5-HT2B; read-out: Ki Human 5-HT2B, [3H]Serotonin, 5-HT2B cells, AVG): 2.24 nM
Cc1ccc2[nH]c3c(c2c1)CCNC3C(C)c1cccc2ccccc12 (racemic) [Example 49, (±) 6-methyl-1-(1-naphthalenyl-1-ethyl)-1,2,3,4-tetrahydro-9H-pyrido [3,4-b]indole (Z) 2-butenedioate] |  |  | ~0.0389 | Ki (rat 5-HT2B receptor; Radioligand assay, Table III, read-out: pKi (converted)): 3.98 nM
CCCN(CCC)C1CCc2cccc(C(=O)C(C)(C)C)c2C1 (single isomer, unassigned) | 4750 | 2230 |  | 

SMILES | Ki (Human 5-HT2B; [2]) [nM] | Ki (Human 5-HT2A) [nM] | Kb [1, 4] [nM] | also measured
COc1ccc(CC2NCCc3c2[nH]c2c3ccc3ccccc32)cc1OC (centres unmarked) [Example 10, 7,8,9,10-tetrahydro-10-[(3,4-dimethoxyphenyl)methyl]-11H-benzo[g]pyrido[3,4-b]indole] |  |  | 0.603 | 
COc1ccc(CC2NCCc3c2[nH]c2ccc(C4CCCCC4)cc32)cc1OC (centres unmarked) [Example 11, 6-cyclohexyl-1-[(3,4-dimethoxyphenyl)-methyl]-1,2,3,4-tetrahydro-9H-pyrido[3,4-b]indole hydrochloride] |  |  | > 30.2 | 
COc1ccc(CC2NCCc3c2[nH]c2c(C)ccc(C)c32)cc1OC (centres unmarked) [Example 12, 5,8-dimethyl-1,2,3,4-tetrahydro-1-[(3,4-dimethoxyphenyl)methyl]-9H-pyrido[3,4b]indole hydrochloride] |  |  | 0.513 | 
COc1ccc(CC2NCCc3c2[nH]c2ccc(C(C)C)cc32)cc1OC (centres unmarked) [Example 13, 6-(1-methylethyl)-1,2,3,4-tetrahydro-1-[(3,4-dimethoxyphenyl)methyl]-9H-pyrido[3,4b]indole] |  |  | 3.16 | 
COc1ccc(CC2NCCc3c2[nH]c2c(C)cc(C)cc32)cc1OC (centres unmarked) [Example 14, 6,8-dimethyl-1,2,3,4-tetrahydro-1-[(3,4-dimethoxyphenyl)methyl]-9H-pyrido[3,4b]indole hydrochloride] |  |  | 0.245 | 
COc1ccc(CC2NCCc3c2[nH]c2cc(C)cc(C)c32)cc1OC (centres unmarked) [Example 15, 5,7-dimethyl-1,2,3,4-tetrahydro-1-[(3,4-dimethoxyphenyl)methyl]-9H-pyrido[3,4b]indole hydrochloride] |  |  | 0.457 | 
COc1ccc(CC2NCCc3c2[nH]c2ccc(Br)cc32)cc1OC (centres unmarked) [Example 18, 6-bromo-1,2,3,4-tetrahydro-1-[(3,4-dimethoxyphenyl)methyl]-9H-pyrido[3,4b]indole] |  |  | 1.58 | 
COc1ccc(CC2NCCc3c2[nH]c2c(C)c(C)ccc32)cc1OC (centres unmarked) [Example 19, 7,8-dimethyl-1,2,3,4-tetrahydro-1-[(3,4-dimethoxyphenyl)methyl]-9H-pyrido[3,4b]indole hydrochloride] |  |  |  | Kb [1]: 0.0759 nM
COc1cc(CC2NCCc3c2[nH]c2ccc(C)cc32)cc([N+](=O)[O-])c1OC (centres unmarked) [Example 28, 6-methyl-1-[(3,4-dimethoxy-5-nitrophenyl)-methyl]-1,2,3,4-tetrahydro-9H-pyrido[3,4-b]indole hydrochloride] |  |  | 2.82 | 
COc1cc(CC2NCCc3c2[nH]c2ccc(C)cc32)cc(I)c1OC (centres unmarked) [Example 29, 6-methyl-1-[(3-iodo-4,5-dimethoxy-phenyl)-methyl]-1,2,3,4-tetrahydro-9H-pyrido[3,4-b]indole] |  |  | 7.59 | 
COc1cc(CC2NCCc3c2[nH]c2ccc(C)cc32)cc(N)c1OC (centres unmarked) [Example 30, 6-methyl-1-[(3,4-dimethoxy-5-amino-phenyl)-methyl]-1,2,3,4-tetrahydro-9H-pyrido[3,4-b]indole dihydrochloride] |  |  | 1.29 | 
COc1ccc(CC2NCCc3c2[nH]c2ccc(C)cc32)cc1F (centres unmarked) [Example 34, 6-methyl-1-[(3-fluoro-4-methoxyphenyl)-methyl]-1,2,3,4-tetrahydro-9H-pyrido[3,4-b]indole hydrochloride] |  |  | 0.38 | 
Cc1ccc2[nH]c3c(c2c1)CCNC3Cc1ccc(C)c(C)c1 (centres unmarked) [Example 35, 6-methyl-1-[(3,4-dimethylphenyl)methyl]-1,2,3,4-tetrahydro-9H-pyrido[3,4-b]indole hydrochloride] |  |  |  | Kb ([1]; read-out: 5-HT2B (Fundus) -log KB (converted)): ~0.871 nM
COc1c(O)ccc(CC2NCCc3c2[nH]c2ccc(C)cc32)c1Cl (centres unmarked) [Example 37, 6-methyl-1-[(2-chloro-3-methoxy-4-hydroxyphenyl)methyl]-1,2,3,4-tetrahydro-9H-pyrido[3,4-b]-indole hydrochloride] |  |  | 0.646 | 
Cc1ccc2[nH]c3c(c2c1)CCNC3CC1CCCCC1 (centres unmarked) [Example 39, 6-methyl-1-(cyclohexylmethyl)-1,2,3,4-tetrahydro-9H-pyrido[3,4-b]indole hydrochloride] |  |  | 4.79 | 
COc1ccc(CC2c3[nH]c4ccc(C)cc4c3CCN2C)c(Cl)c1OC (centres unmarked) [Example 44, 2,6-dimethyl-1-[(2-chloro-3,4-dimethoxyphenyl)methyl]-1,2,3,4-tetrahydro-9H-pyrido[3,4-b]indole hydrochloride] |  |  | 3.98 | 
COc1ccc(CC2c3[nH]c4ccc(C(C)C)cc4c3CCN2C)cc1OC (centres unmarked) [Example 45, 2-methyl-6-(1-methylethyl)-1,2,3,4-tetrahydro-1-[(3,4-dimethoxyphenyl)methyl]-9H-pyrido-[3,4b]indole maleate] |  |  |  | 5-HT2B (Fundus) -log KB ([1]; rat stomach fundus, vs serotonin, ± standard error): 8.14 ± 0.32
Cc1ccc2[nH]c3c(c2c1)CCN[C@H]3Cc1cccc2ccccc12 [Example 64, (-)-(S)-6-methyl-1,2,3,4-tetrahydro-1-(1-naphthalenylmethyl)-9H-pyrido [3,4-b] indole hydrochloride] |  |  | 0.186 | 
COc1ccc(CC2NCCc3c2[nH]c2ccc(C)cc32)cc1OC (centres unmarked) [drawing 144] |  | 28.1 |  | 
COc1ccc(CC2NCCc3c2[nH]c2c(C)cccc32)cc1OC (centres unmarked) [drawing 182] | 1.69 | 49.7 |  | 
